Experimental data from ChEMBL document CHEMBL5584208, “Conformationally constrained potent inhibitors for enhancer of zeste homolog 2 (EZH2)” (Bioorg Med Chem Lett, 2024).

What was measured:
[1] = Cmax in mouse at 10 mg/kg, po; type: ADME, organism-based; conditions: in vivo
[2] = Oral bioavailability in mouse at 10 mg/kg; type: ADME, organism-based; conditions: in vivo
[3] = Half life in mouse at 10 mg/kg, po; type: ADME, organism-based; conditions: in vivo
KARPAS-422 [4] = assay: Antiproliferative activity against human KARPAS-422 cells harboring EZH2 Y641N mutant; type: functional, cell-based
[5] = AUC (0 to t) in mouse at 10 mg/kg, po; type: ADME, organism-based; conditions: in vivo
Pfeiffer [6] = assay: Antiproliferative activity against human Pfeiffer cells harboring EZH2 A677G mutant; type: functional, cell-based
WSUDLCL2 = assay: Antiproliferative activity against human WSUDLCL2 cells harboring EZH2 Y641F mutant; type: functional, cell-based
[7] = Half life in mouse at 2 mg/kg, iv; type: ADME, organism-based; conditions: in vivo
[8] = AUC (0 to t) in mouse at 2 mg/kg, iv; type: ADME, organism-based; conditions: in vivo
[9] = Volume of distribution at steady state in mouse at 2 mg/kg, iv; type: ADME, organism-based; conditions: in vivo, read-out: Vdss
[10] = Cmax in mouse at 2 mg/kg, iv; type: ADME, organism-based; conditions: in vivo
[11] = AUC (0 to infinity) in mouse at 10 mg/kg, po; type: ADME, organism-based; conditions: in vivo
[12] = Clearance in mouse at 2 mg/kg, iv; type: ADME, organism-based; conditions: in vivo
[13] = AUC (0 to infinity) in mouse at 2 mg/kg, iv; type: ADME, organism-based; conditions: in vivo
[14] = Metabolic stability in dog liver microsomes assessed as half life; type: ADME, Canis lupus familiaris, Microsome
[15] = Metabolic stability in monkey liver microsomes assessed as intrinsic clearance in liver; type: ADME, Macaca mulatta, Microsome; conditions: rhesus monkey, read-out: CLH
[16] = Metabolic stability in dog liver microsomes assessed as intrinsic clearance in hepatocytes measured per million cells; type: ADME, Canis lupus familiaris, Microsome
[17] = Toxicity in mouse xenografted with human Pfeiffer cells harboring EZH2 A677G mutant assessed as body weight loss at 25 to 100 mg/kg, po qd for 28 days; type: organism-based; conditions: in vivo, 672 h, dose 25-100 mg/kg, time 28 day
[18] = Metabolic stability in human liver microsomes assessed as half life; type: ADME, Microsome
[19] = Metabolic stability in rat liver microsomes assessed as half life; type: ADME, Microsome
[20] = Metabolic stability in rat liver microsomes assessed as intrinsic clearance in hepatocytes measured per million cells; type: ADME, Microsome
KARPAS-422 [21] = assay: Antitumor activity against human KARPAS-422 cells harboring EZH2 Y641N mutant xenografted in mouse at 50 mg/kg, po bid for 28 days relative to control; type: functional; conditions: KARPAS-422, 672 h, time 28 day, read-out: TGI
Pfeiffer [22] = assay: Antitumor activity against human Pfeiffer cells harboring EZH2 A677G mutant xenografted in mouse assessed as reduction in tumor volume at 25 to 100 mg/kg, po qd for 28 days; type: functional; parameters: scale not given: the % may be the effect or the level left; conditions: dose 25-100 mg/kg, time 28 day
[23] = Metabolic stability in rat liver microsomes assessed as intrinsic clearance in liver; type: ADME, Microsome; conditions: read-out: CLH
[24] = Drug concentration in human KARPAS-422 cells harboring EZH2 Y641N mutant xenografted in mouse at 100 mg/kg, po measured after 8 hrs; type: ADME, organism-based; conditions: KARPAS-422 xenograft tumour, read-out: Ct
[25] = Metabolic stability in monkey liver microsomes assessed as half life; type: ADME, Macaca mulatta, Microsome; conditions: rhesus monkey
[26] = Drug concentration in human KARPAS-422 cells harboring EZH2 Y641N mutant xenografted in mouse at 100 mg/kg, po measured after 4 hrs; type: ADME, organism-based; conditions: KARPAS-422 xenograft tumour, read-out: Ct
Pfeiffer [27] = assay: Antitumor activity against human Pfeiffer cells harboring EZH2 A677G mutant xenografted in mouse at 100 mg/kg, po qd for 28 days relative to control; type: functional; conditions: 672 h, time 28 day, read-out: TGI
KARPAS-422 [28] = assay: Antitumor activity against human KARPAS-422 cells harboring EZH2 Y641N mutant xenografted in mouse at 100 mg/kg, po bid for 28 days relative to control; type: functional; conditions: KARPAS-422, 672 h, time 28 day, read-out: TGI
[29] = Metabolic stability in human liver microsomes assessed as intrinsic clearance in hepatocytes measured per million cells; type: ADME, Microsome
[30] = Metabolic stability in mouse liver microsomes assessed as intrinsic clearance in liver; type: ADME, Microsome; conditions: read-out: CLH
KARPAS-422 [31] = assay: Antitumor activity against human KARPAS-422 cells harboring EZH2 Y641N mutant xenografted in mouse at 200 mg/kg, po bid for 28 days relative to control; type: functional; conditions: KARPAS-422, 672 h, time 28 day, read-out: TGI
[32] = Metabolic stability in mouse liver microsomes assessed as half life; type: ADME, Microsome
KARPAS-422 [33] = assay: Antitumor activity against human KARPAS-422 cells harboring EZH2 Y641N mutant xenografted in mouse assessed as reduction tumor volume at 50 to 200 mg/kg, po bid for 28 days relative to control; type: functional; parameters: scale not given: the % may be the effect or the level left; conditions: dose 50-200 mg/kg, time 28 day
[34] = Metabolic stability in dog liver microsomes assessed as intrinsic clearance in liver; type: ADME, Canis lupus familiaris, Microsome; conditions: read-out: CLH
Pfeiffer [35] = assay: Antitumor activity against human Pfeiffer cells harboring EZH2 A677G mutant xenografted in mouse at 25 mg/kg, po qd for 28 days relative to control; type: functional; conditions: 672 h, time 28 day, read-out: TGI
[36] = Toxicity in mouse xenografted with human KARPAS-422 cells harboring EZH2 Y641N mutant assessed as body weight loss at 50 to 200 mg/kg, po bid for 28 days; type: organism-based; conditions: in vivo, 672 h, dose 50-200 mg/kg, time 28 day
[37] = Metabolic stability in mouse liver microsomes assessed as intrinsic clearance in hepatocytes measured per million cells; type: ADME, Microsome
[38] = Metabolic stability in human liver microsomes assessed as intrinsic clearance in liver; type: ADME, Microsome; conditions: read-out: CLH
Pfeiffer [39] = assay: Antitumor activity against human Pfeiffer cells harboring EZH2 A677G mutant xenografted in mouse at 50 mg/kg, po qd for 28 days relative to control; type: functional; conditions: 672 h, time 28 day, read-out: TGI
[40] = Metabolic stability in monkey liver microsomes assessed as intrinsic clearance in hepatocytes measured per million cells; type: ADME, Macaca mulatta, Microsome; conditions: rhesus monkey

## CCN(c1cc(-c2ccc3c(c2)N(C)CC32CCOCC2)cc(C(=O)NCc2c(C)cc(C)[nH]c2=O)c1C)C1CCOCC1
[1]
  Cmax: 1280 ng/mL
[2]
  bioavailability: 11.9%
[3]
  half-life: 10.8 min
KARPAS-422 [4]
  IC50: 1.9 nM
[5]
  AUC(0-t): 566 ng·h/mL
Pfeiffer [6]
  IC50: 1.01 nM
WSUDLCL2
  IC50: 1.9 nM
[7]
  half-life: 10.8 min
[8]
  AUC(0-t): 949 ng·h/mL
[9]
  Vd: 0.565 L/kg
[10]
  Cmax: 2790 ng/mL
[11]
  AUC(0-inf): 570 ng·h/mL
[12]
  clearance: 34.6 mL/min/kg
[13]
  AUC(0-inf): 955 ng·h/mL

## CCN1C(=O)C2(CCOCC2)c2ccc(-c3cc(C(=O)NCc4c(C)cc(C)[nH]c4=O)c(C)c(N(CC)C4CCOCC4)c3)cc21
[1]
  Cmax: 1750 ng/mL
[2]
  bioavailability: 33%
[3]
  half-life: 27.6 min
KARPAS-422 [4]
  IC50: 1.79 nM
[5]
  AUC(0-t): 1350 ng·h/mL
Pfeiffer [6]
  IC50: 0.49 nM
WSUDLCL2
  IC50: 2.38 nM
[7]
  half-life: 19.2 min
[8]
  AUC(0-t): 818 ng·h/mL
[9]
  Vd: 0.803 L/kg
[10]
  Cmax: 2580 ng/mL
[11]
  AUC(0-inf): 1360 ng·h/mL
[12]
  clearance: 43 mL/min/kg
[13]
  AUC(0-inf): 831 ng·h/mL

## CCN(c1cc(-c2ccc3c(c2)CCC3N2CCOCC2)cc(C(=O)NCc2c(C)cc(C)[nH]c2=O)c1C)C1CCOCC1 (centres undefined)
[14]
  half-life: 34.5 min
[15]
  CLint scaled: 272 mL/min/kg
[16]
  CLH: 40.2 µL/min
[1]
  Cmax: 1700 ng/mL
[2]
  bioavailability: 36.9%
[3]
  half-life: 40.2 min
KARPAS-422 [4]
  IC50: 1.82 nM
[5]
  AUC(0-t): 2960 ng·h/mL
Pfeiffer [6]
  IC50: 1.73 nM
[17]
  Activity: Non-Toxic
[18]
  half-life: 80.3 min
[19]
  half-life: 13.9 min
[20]
  CLH: 99.9 µL/min
KARPAS-422 [21]
  inhibition in vivo at 50 mg/kg: 16%
Pfeiffer [22]
  Activity: 53.1%
WSUDLCL2
  IC50: 2.36 nM
[23]
  CLint scaled: 468 mL/min/kg
[7]
  half-life: 25.2 min
[8]
  AUC(0-t): 1610 ng·h/mL
[24]
  concentration at 8 h: 9520 ng/mL
[25]
  half-life: 18.3 min
[26]
  concentration at 4 h: 8580 ng/mL
[9]
  Vd: 0.65 L/kg
Pfeiffer [27]
  inhibition in vivo at 100 mg/kg: 100%
KARPAS-422 [28]
  inhibition in vivo at 100 mg/kg: 52.5%
[29]
  CLH: 17.3 µL/min
[30]
  CLint scaled: 942 mL/min/kg
KARPAS-422 [31]
  inhibition in vivo at 200 mg/kg: 98%
[32]
  half-life: 17.5 min
[10]
  Cmax: 2400 ng/mL
KARPAS-422 [33]
  Activity: 16%
[34]
  CLint scaled: 276 mL/min/kg
Pfeiffer [35]
  inhibition in vivo at 25 mg/kg: 53.1%
[11]
  AUC(0-inf): 2970 ng·h/mL
[12]
  clearance: 20.7 mL/min/kg
[36]
  Activity: Non-Toxic
[37]
  CLH: 79.3 µL/min
[13]
  AUC(0-inf): 1610 ng·h/mL
[38]
  CLint scaled: 48 mL/min/kg
Pfeiffer [39]
  inhibition in vivo at 50 mg/kg: 68.9%
[40]
  CLH: 75.6 µL/min
